As a reminder, the EC50 is the concentration giving half of the maximal effect.

Numbered stars: 1 amine (or outer) side, 2 acyl side, 3 side chain; on linkers, the order of the positions; unused ones are H or OH. Bridge positions count the residues as written; N and C are the ends. Square brackets hold non-standard residues; d marks the D form. Peptide text beside a SMILES is read from it. * marks the point of attachment. C20 diacid = O=C(O)CCCCCCCCCCCCCCCCCCC(=O)*; γGlu = O=C(O)[C@H](CCC(=O)[*:2])N[*:1]; NMeI = CC[C@H](C)[C@H](NC)C(=O)O; hArg = N=C(N)NCCCC[C@H](N)C(=O)O; Sar = CNCC(=O)O

One experiment addresses T1, human calcitonin receptor (hCTR2) (Homo sapiens, UniProt P30988).
T1 construct: expressed in transfected cells
T1 sequence (P30988 25-474): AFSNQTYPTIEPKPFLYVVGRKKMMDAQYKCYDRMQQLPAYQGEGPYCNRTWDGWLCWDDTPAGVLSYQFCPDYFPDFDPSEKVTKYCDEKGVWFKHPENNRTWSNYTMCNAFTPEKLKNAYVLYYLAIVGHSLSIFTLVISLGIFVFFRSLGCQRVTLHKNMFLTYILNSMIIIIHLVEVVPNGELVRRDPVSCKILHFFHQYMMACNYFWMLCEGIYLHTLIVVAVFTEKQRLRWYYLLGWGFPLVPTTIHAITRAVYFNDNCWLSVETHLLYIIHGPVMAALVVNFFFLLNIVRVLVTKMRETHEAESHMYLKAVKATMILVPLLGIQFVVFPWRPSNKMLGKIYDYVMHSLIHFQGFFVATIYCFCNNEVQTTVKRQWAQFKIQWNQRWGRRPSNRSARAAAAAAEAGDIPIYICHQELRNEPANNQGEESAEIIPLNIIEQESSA
Kind of experiment: hCTR2 assay: induction of cAMP (AlphaScreen cAMP Assay kit) in COS7 cells expressing hCTR2.
Conditions: not given
It counts as cell-based. An outline of the steps:
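cAMP induction was measured by AlphaScreen in COS7 cells stably expressing hCTR2 without RAMPs, after 15 min at 37° C with increasing peptide concentrations, 100 µM IBMX and 0.1% casein (Tyrode, pH 7.4). A 4-parameter logistic fit gave EC50 and % efficacy versus pramlintide.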
A general note: Bead proximity is the source of the signal in Alpha formats.
As to `CC[C@H](C)[C@@H](C(=O)N[C@@H](CC(C)C)C(=O)N[C@H](CO)C(=O)N[C@@H](CO)C(=O)N[C@H](C(=O)N[C@@H](CC(N)=O)C(=O)N[C@H](C(=O)NCC(=O)N[C@@H](CO)C(=O)N[C@@H](CC(N)=O)C(=O)N[C@H](C(=O)N1CCC[C@H]1C(N)=O)[C@@H](C)O)C(C)C)[C@@H](C)O)N(C)C(=O)[C@H](C)NC(=O)CN(C)C(=O)[C@H](Cc1ccccc1)NC(=O)[C@H](CC(N)=O)NC(=O)[C@H](CC(N)=O)NC(=O)[C@H](CO)NC(=O)[C@H](CO)NC(=O)[C@H](Cc1c[nH]cn1)NC(=O)[C@H](Cc1c[nH]cn1)NC(=O)[C@H](CC(C)C)NC(=O)[C@H](Cc1ccccc1)NC(=O)[C@H](CCC(=O)O)NC(=O)[C@H](C)NC(=O)[C@H](CC(C)C)NC(=O)[C@H](CCCNC(=N)N)NC(=O)[C@H](CCC(N)=O)NC(=O)[C@@H](NC(=O)[C@H](C)NC(=O)[C@@H]1CSSC[C@H](NC(=O)[C@H](CCCNC(=N)N)NC(=O)CC[C@H](NC(=O)CCCCCCCCCCCCCCCCCCC(=O)O)C(=O)O)C(=O)N[C@@H](CC(N)=O)C(=O)N[C@@H]([C@@H](C)O)C(=O)N[C@@H](C)C(=O)N[C@@H]([C@@H](C)O)C(=O)N1)[C@@H](C)O` [Compound 23, [19CD]-isoGlu-RC()NTATC()ATQRLAEFLHHSSNNF-Gly(Me)-A-Ile(Me)-L-DSer-STNVGSNTP-NH2] ({C20 diacid-γGlu}-RCNTATCATQRLAEFLHHSSNNF[Sar]A[NMeI]L[dS]STNVGSNTP-NH2; disulfide 2-7), the EC50 was 0.074 nM.

As for `CC[C@H](C)[C@@H](C(=O)N[C@@H](CC(C)C)C(=O)N[C@@H](CO)C(=O)N[C@@H](CO)C(=O)N[C@H](C(=O)N[C@@H](CC(N)=O)C(=O)N[C@H](C(=O)NCC(=O)N[C@@H](CO)C(=O)N[C@@H](CC(N)=O)C(=O)N[C@H](C(=O)N1CCC[C@H]1C(N)=O)[C@@H](C)O)C(C)C)[C@@H](C)O)N(C)C(=O)CN(C)C(=O)[C@H](Cc1ccccc1)NC(=O)[C@H](CC(N)=O)NC(=O)[C@@H](CC(N)=O)NC(=O)[C@H](CO)NC(=O)[C@H](CO)NC(=O)[C@H](Cc1c[nH]cn1)NC(=O)[C@H](Cc1c[nH]cn1)NC(=O)[C@H](CC(C)C)NC(=O)[C@H](Cc1ccccc1)NC(=O)[C@H](CCC(=O)O)NC(=O)[C@H](C)NC(=O)[C@H](CC(C)C)NC(=O)[C@H](CCCNC(=N)N)NC(=O)[C@H](CCC(N)=O)NC(=O)[C@@H](NC(=O)[C@H](C)NC(=O)[C@@H]1CSSC[C@H](NC(=O)[C@H](CCCNC(=N)N)NC(=O)CC[C@H](NC(=O)CCCCCCCCCCCCCCCCCCC(=O)O)C(=O)O)C(=O)N[C@@H](CC(N)=O)C(=O)N[C@@H]([C@@H](C)O)C(=O)N[C@@H](C)C(=O)N[C@@H]([C@@H](C)O)C(=O)N1)[C@@H](C)O` [Compound 35, [19CD]-isoGlu-RC()NTATC()ATQRLAEFLHHSS-DAsn-NF-Gly(Me)-Ile(Me)-LSSTNVGSNTP-NH2] ({C20 diacid-γGlu}-RCNTATCATQRLAEFLHHSS[dN]NF[Sar][NMeI]LSSTNVGSNTP-NH2; disulfide 2-7), the EC50 came out at 0.16 nM.

As for `CC[C@H](C)[C@@H](C(=O)N[C@@H](CC(C)C)C(=O)N[C@@H](CO)C(=O)N[C@@H](CO)C(=O)N[C@H](C(=O)N[C@@H](CC(N)=O)C(=O)N[C@H](C(=O)NCC(=O)N[C@@H](CO)C(=O)N[C@@H](CC(N)=O)C(=O)N[C@H](C(=O)N1CCC[C@H]1C(N)=O)[C@@H](C)O)C(C)C)[C@@H](C)O)N(C)C(=O)[C@H](C)NC(=O)CN(C)C(=O)[C@H](Cc1ccccc1)NC(=O)[C@H](CC(N)=O)NC(=O)[C@H](CC(N)=O)NC(=O)[C@H](CO)NC(=O)[C@H](CO)NC(=O)[C@H](Cc1c[nH]cn1)NC(=O)[C@H](Cc1c[nH]cn1)NC(=O)[C@H](CC(C)C)NC(=O)[C@H](Cc1ccccc1)NC(=O)[C@H](CCC(=O)O)NC(=O)[C@H](C)NC(=O)[C@H](CC(C)C)NC(=O)[C@H](CCCNC(=N)N)NC(=O)[C@H](CCC(N)=O)NC(=O)[C@@H](NC(=O)[C@H](C)NC(=O)[C@@H]1CSSC[C@H](NC(=O)[C@H](CCCCNC(=N)N)NC(=O)CC[C@H](NC(=O)CCCCCCCCCCCCCCCCCCC(=O)O)C(=O)O)C(=O)N[C@@H](CC(N)=O)C(=O)N[C@@H]([C@@H](C)O)C(=O)N[C@@H](C)C(=O)N[C@@H]([C@@H](C)O)C(=O)N1)[C@@H](C)O` [Compound 43, [19CD]-isoGlu-HarC()NTATC()ATQRLAEFLHHSSNNF-Gly(Me)-A-Ile(Me)-LSSTNVGSNTP-NH2] ({C20 diacid-γGlu}-[hArg]CNTATCATQRLAEFLHHSSNNF[Sar]A[NMeI]LSSTNVGSNTP-NH2; disulfide 2-7), the EC50 was found to be 0.1 nM.

Still in this experiment, the particulars now being: cAMP induction in COS7 cells expressing hCTR2; average of a minimum of 3 determinations; read-out: hCTR2 EC50.
On to `CC(C)C[C@H](NC(=O)[C@H](C)NC(=O)CN(C)C(=O)[C@H](Cc1ccccc1)NC(=O)[C@H](CC(N)=O)NC(=O)[C@H](CC(N)=O)NC(=O)[C@H](CO)NC(=O)[C@H](CO)NC(=O)[C@H](Cc1c[nH]cn1)NC(=O)[C@H](Cc1c[nH]cn1)NC(=O)[C@H](CC(C)C)NC(=O)[C@H](Cc1ccccc1)NC(=O)[C@H](CCC(=O)O)NC(=O)[C@H](C)NC(=O)[C@H](CC(C)C)NC(=O)[C@H](CCCNC(=N)N)NC(=O)[C@H](CCC(N)=O)NC(=O)[C@@H](NC(=O)[C@H](C)NC(=O)[C@@H]1CSSC[C@H](NC(=O)[C@H](CCCNC(=N)N)NC(=O)CC[C@H](NC(=O)CCCCCCCCCCCCCCCCCCC(=O)O)C(=O)O)C(=O)N[C@@H](CC(N)=O)C(=O)N[C@@H]([C@@H](C)O)C(=O)N[C@@H](C)C(=O)N[C@@H]([C@@H](C)O)C(=O)N1)[C@@H](C)O)C(=O)N[C@@H](CO)C(=O)N[C@@H](CO)C(=O)N[C@H](C(=O)N[C@@H](CC(N)=O)C(=O)N[C@H](C(=O)NCC(=O)N[C@@H](CO)C(=O)N[C@@H](CC(N)=O)C(=O)N[C@H](C(=O)N1CCC[C@H]1C(N)=O)[C@@H](C)O)C(C)C)[C@@H](C)O` [Compound 27, [19CD]-isoGlu-RC()NTATC()ATQRLAEFLHHSSNNF-Gly(Me)-ALSSTNVGSNTP-NH2] ({C20 diacid-γGlu}-RCNTATCATQRLAEFLHHSSNNF[Sar]ALSSTNVGSNTP-NH2; disulfide 2-7), for which the EC50 is 0.14 nM.

For `CC[C@H](C)[C@@H](C(=O)N[C@@H](CC(C)C)C(=O)N[C@@H](CO)C(=O)N[C@@H](CO)C(=O)N[C@H](C(=O)N[C@@H](CC(N)=O)C(=O)N[C@H](C(=O)NCC(=O)N[C@@H](CO)C(=O)N[C@@H](CC(N)=O)C(=O)N[C@H](C(=O)N1CCC[C@H]1C(N)=O)[C@@H](C)O)C(C)C)[C@@H](C)O)N(C)C(=O)CN(C)C(=O)[C@H](Cc1ccccc1)NC(=O)[C@H](CC(N)=O)NC(=O)[C@H](CC(N)=O)NC(=O)[C@H](CO)NC(=O)[C@@H](CO)NC(=O)[C@H](Cc1c[nH]cn1)NC(=O)[C@H](Cc1c[nH]cn1)NC(=O)[C@H](CC(C)C)NC(=O)[C@H](Cc1ccccc1)NC(=O)[C@H](CCC(=O)O)NC(=O)[C@H](C)NC(=O)[C@H](CC(C)C)NC(=O)[C@H](CCCNC(=N)N)NC(=O)[C@H](CCC(N)=O)NC(=O)[C@@H](NC(=O)[C@H](C)NC(=O)[C@@H]1CSSC[C@H](NC(=O)[C@H](CCCNC(=N)N)NC(=O)CC[C@H](NC(=O)CCCCCCCCCCCCCCCCCCC(=O)O)C(=O)O)C(=O)N[C@@H](CC(N)=O)C(=O)N[C@@H]([C@@H](C)O)C(=O)N[C@@H](C)C(=O)N[C@@H]([C@@H](C)O)C(=O)N1)[C@@H](C)O` [Compound 30, [19CD]-isoGlu-RC()NTATC()ATQRLAEFLHH-DSer-SNNF-Gly(Me)-Ile(Me)-LSSTNVGSNTP-NH2] ({C20 diacid-γGlu}-RCNTATCATQRLAEFLHH[dS]SNNF[Sar][NMeI]LSSTNVGSNTP-NH2; disulfide 2-7), the EC50 turned out to be 0.56 nM.

With `CC[C@H](C)[C@@H](C(=O)N[C@@H](CC(C)C)C(=O)N[C@@H](CO)C(=O)N[C@@H](CO)C(=O)N[C@H](C(=O)N[C@@H](CC(N)=O)C(=O)N[C@H](C(=O)NCC(=O)N[C@@H](CO)C(=O)N[C@@H](CC(N)=O)C(=O)N[C@H](C(=O)N1CCC[C@H]1C(N)=O)[C@@H](C)O)C(C)C)[C@@H](C)O)N(C)C(=O)CN(C)C(=O)[C@H](Cc1ccccc1)NC(=O)[C@H](CC(N)=O)NC(=O)[C@H](CC(N)=O)NC(=O)[C@@H](CO)NC(=O)[C@H](CO)NC(=O)[C@H](Cc1c[nH]cn1)NC(=O)[C@H](Cc1c[nH]cn1)NC(=O)[C@H](CC(C)C)NC(=O)[C@H](Cc1ccccc1)NC(=O)[C@H](CCC(=O)O)NC(=O)[C@H](C)NC(=O)[C@H](CC(C)C)NC(=O)[C@H](CCCNC(=N)N)NC(=O)[C@H](CCC(N)=O)NC(=O)[C@@H](NC(=O)[C@H](C)NC(=O)[C@@H]1CSSC[C@H](NC(=O)[C@H](CCCNC(=N)N)NC(=O)CC[C@H](NC(=O)CCCCCCCCCCCCCCCCCCC(=O)O)C(=O)O)C(=O)N[C@@H](CC(N)=O)C(=O)N[C@@H]([C@@H](C)O)C(=O)N[C@@H](C)C(=O)N[C@@H]([C@@H](C)O)C(=O)N1)[C@@H](C)O` [Compound 34, [19CD]-isoGlu-RC()NTATC()ATQRLAEFLHHS-DSer-NNF-Gly(Me)-Ile(Me)-LSSTNVGSNTP-NH2] ({C20 diacid-γGlu}-RCNTATCATQRLAEFLHHS[dS]NNF[Sar][NMeI]LSSTNVGSNTP-NH2; disulfide 2-7), the EC50 amounted to 0.26 nM.

For the origin of these results see EP3046573B1, “AMYLIN ANALOGUES” (Zealand Pharma A/S, priority 2013, dated 2015).
